One assay deals with SIVmac251. In words: Weekly intravaginal SIVmac251 challenge of vaccinated and/or SAMT-247 gel treated female macaques. The class given is in vivo, Rhesus macaques. An excerpt: Animals. Fifty female Indian Rhesus macaques obtained from the free-range breeding colony on Morgan Island, South Carolina, were used in this study. The macaques, aged 2 to 3 years at study initiation, were negative for SIV, simian retrovirus, and STLV, and were MHC typed before being divided into 4 groups: vaccine/microbicide group (20 macaques, 3 A*01 positive, 1 B*17 positive, 1 B*08 positive); vaccine only group (18 macaques, 3 A*01 positive, 1 B*17 positive); microbicide only group (6 macaques, 1 both A*01 positive and B*17 positive) and control group (6 macaques, 1 both A*01 positive and B*17 positive). Data on 37 historical naïve controls intravaginally challenged with the same dose and lot of SIVmac251 were added to the control group to increase statistical power. […]
Immunization and Challenge. […] Up to 14 challenges were administered until the macaques became SIV positive as assessed by droplet digital PCR. […]
Statistical analysis. […] Comparisons of differences between groups in the number of challenges before viral acquisition were assessed using the log-rank (Mantel-Cox) test of the discrete-time proportional hazards model. […] Correlation analyses were performed using the non-parametric Spearman rank correlation method with exact permutation and approximate two-tailed P values calculated for the number of pairs≤17 and >17, respectively. […]

Assay [1] relates to macaque rectal mucosal NK cells. In words: Frequencies and cytokine levels of macaque rectal mucosal NK/ILCs following SAMT-247 and PMA stimulation. Type of assay: cell-based. An excerpt:
Additionally, rectal tissue from 9 macaques was used for an in vitro study. The age-matched macaques from this separate study (P204) included 4 animals vaccinated against HIV and 5 naïve animals, all challenged with SHIV. Rectal tissue was obtained post challenge from 7 infected and 2 uninfected animals for the P204 study analysis. Extra cells were available from that collection and were used here for the in vitro study.
Frequencies and cytokine levels of macaque rectal mucosal NK cells and T cells following SAMT-247 and PMA stimulation. NK/ILC and T cell frequencies and cytokine levels were measured in macaque rectal mucosa. Freshly collected rectal biopsies were processed to single cells and cultured in R10 in the presence/or absence of SAMT-247 and/or PMA for 12 hours. Subsequently, cells were stained for live cells with Live/Dead Blue dye (cat. #L34962, 0.5 μl) from Thermofisher; followed by surface staining with the following: BUV737 anti-CD3 (SP34-2; cat. #741872, 5 μl), BV711 anti-CD4 (L200; cat. #563913, 5 μl), BV650 anti-NKp44 (P44-8; cat. #744302, 5 μl), Alexa700 anti-CD20 (2H7; cat. #560631, 5 μl), BV786 anti-CD45 (D058-1283; cat. #563861, 5 μl) from BD Biosciences; APC-H7 anti-CD11b (ICRF44; cat. #47-0118-42, 5 μl), PE-Cy5 anti-CD95 (ICRF44; cat. #15-0959-42, 5 μl) from eBioscience; BV570 anti-CD8 (RPA-T8; cat. #301038, 5 μl), BV605 anti-CCR6 (G034E3; cat. #353420, 5 μl), APC anti-CXCR3 (G025H7; cat. #353708, 5 μl), from Biolegend and PE-Cy7 anti-NKG2A (Z199; cat. #B10246, 5 μl) from Beckman coulter for 30 minutes at room temperature. This was followed by permeabilization with a FOX3-transcription buffer set (cat. #00-5523-00) from eBioscience according to the manufacture's recommendation and subsequently intracellular staining with the following: BV750 anti-TNF-α (MAB11; cat. #566359, 5 μl), BUV395 anti-IFN-γ (B27; cat. #563563, 5 μl), BV510 anti-GranB (GB11; cat. #563388, 5 μl), BV421 anti-IL-10 (JES3-9D7; cat. #564053, 5 μl) from BD Biosciences; PE-Cy5.5 anti-IL-17 (BL168; cat. #512314, 5 μl) from Biolegend; and FITC anti-Perforin (pf-344; cat. #3465-7, 5 μl) from MABTECH for 30 minutes at room temperature. Flow cytometry acquisitions were performed on a FACSymphony A5 and examined using FACSDiva software (BD Biosciences).

Where [2] appears, read: macaque rectal mucosal NK cells, PMA.

Entries after “also recorded” stand apart in the source; their conditions may differ. A value given as a limit tells only on which side of the number the result lay.

For `CC(=O)Sc1ccccc1C(=O)NCCC(N)=O` [SAMT-247], the “risk of virus acquisition compared to controls” value in the assay on SIVmac251 (female macaques, up to 14 weekly intravaginal SIVmac251 exposures, SAMT-247 0.8% in HEC gel 4 h before each challenge) is “No differences in delayed acquisition; also recorded: did not significantly decrease; also recorded: had no effect”. In addition, the “peak virus levels, SAMT-247 only group vs controls” value in the assay with SIVmac251 (infected animals, peak VL at week 2) was “no difference”. Further, in assay [1] (NKp44^+, Mucosa, PMA), the Cytokine entry is “>IL-17” and the Function result is on record as “>Epithelium”. In addition, in assay [1] (setting [2]), the “IFN-γ and TNF-α production” value is listed as “decreased”; the “NKG2A^+ cells expressing granzyme B and perforin” value is on record as “increased”. The “percentage of NKp44^+ cells producing IL-17” value in assay [1] (mucosal cells from 9 macaques exposed in vitro) is on record as “augmented”. Further, in assay [1] (mucosal cells in vitro), the “ability of NKG2A^−NKp44^− cells to produce IFN-γ” value is “tended to decrease” and the “frequency of the NKG2A^−NKp44^− population” value is “decreased”.

These data come from US20240277829A1, “HIV-1 VACCINATION AND SAMT-247 MICROBICIDE TO PREVENT HIV-1 INFECTION” (priority 2021, published 2024).
